According to US10774051B2, “6-membered heterocyclic derivatives and pharmaceutical composition comprising the same” (Shionogi & Co., Ltd., priority 2015, dated 2020):

Biological target: human P2X7 receptor (Homo sapiens, UniProt Q99572, R270H/Y155H)
Experiment: Evaluation of human P2X7 receptor inhibitory activity (Yo-Pro uptake, BzATP stimulation, FLIPR TETRA)
Type: cell-based
Details: 1321N1 cells stably expressing human P2X7 receptor; BzATP stimulation, Yo-Pro uptake; read-out: IC50 (antagonistic activity for the human P2X7 receptor)
Procedure: Stably expressing cell line (1321N1 cell transfected with the human P2X7 receptor gene (GenBank accession number NM_002562.5 including T606C and G952A SNP)) was used. The cells were seeded in a 384-well microtiter plate at a concentration of 8000 cells/well and cultured in the medium (10% fetal bovine serum, 25 mM HEPES, 1% penicillin and streptomycin in DMEM) for one day at 37° C. under 5% carbon dioxide atmosphere. After replacing with 20 μL of the HBSS buffer (20 mM HEPES, 55.6 mM D-glucose, 1×HBSS(−), pH7.4-7.5), 15 μL of 17.3 μM Yo-Pro solution in the HBSS buffer was added. The plate was placed in high-throughput cellular screening system FLIPR TETRA (Molecullar Devices, LLC.) and 15 μL of 130 μM BzATP solution in the HBSS buffer was added. Measurement of fluorescence intensity by FLIPR TETRA was started. After eight minutes, 15 μL of DMSO solutions containing different concentrations of the compound of the present invention as prepared by dilution with the HBSS buffer were dispensed to each well through the built-in automatic dispenser, and the measurement of fluorescence intensity was continued for 20 minutes. […] Changing values of fluorescence intensity by the compound of the present invention were calculated by difference between maximum and minimum fluorescence intensity for 20 minutes. Inhibition ratios (%) were calculated from the following equation:
[formula] IC50 was calculated using logistic approximation.

In order of rising IC50:
1. COC(=O)Nc1cn(Cc2ccccc2)c(Nc2cccc(Cl)c2C)nc1=O [Compound I-0020]  17 nM
2. Cc1c(Cl)cccc1Nc1nc(=O)c(N)cn1Cc1ccccc1 [Compound I-0022]  17 nM
3. Cc1c(Cl)cccc1Nc1nc(=O)ccn1CCc1ccccc1 [Compound I-0055]  26 nM
4. Cc1nc2cc(C)c(Nc3cc(=O)n(C)c(=O)n3Cc3cc(F)c(F)c(F)c3)cc2s1 [Compound I-0030]  34 nM
5. COc1cn(CCc2ccccc2)c(Nc2cccc(Cl)c2C)nc1=O [Compound I-0008]  37 nM
6. Cc1c(Cl)cccc1Nc1nc(=O)c(C#N)cn1Cc1ccccc1 [Compound I-0013]  39 nM
7. Cc1c(Cl)cccc1Nc1nc(=O)c(C(=O)NC2CCOCC2)cn1Cc1ccccc1 [Compound I-0019]  49 nM
8. COc1cn(Cc2ccc(F)c(Cl)c2)c(Nc2cc3sc(C)nc3cc2C)nc1=O [Compound I-0033]  49 nM
9. COc1cccc(Cn2cc(OC)c(=O)nc2Nc2cccc(Cl)c2C)c1 [Compound I-0052]  130 nM
10. COc1cn(Cc2ccccc2C)c(Nc2cccc(C(F)(F)F)c2Cl)nc1=O [Compound I-0014]  250 nM
11. COc1cn(Cc2ccccc2)c(Nc2cccc3c2CCC3)nc1=O [Compound I-0062]  590 nM
12. COc1cn(Cc2ccccc2)c(NC2C[C@@H]3CC[C@H]2C3)nc1=O (stereo partly drawn) [Compound I-0042]  830 nM

Same assay, conditions: 1321N1 cells stably expressing human P2X7 receptor; BzATP stimulation, Yo-Pro uptake; read-out: IC50 (antagonistic activity for the human P2X7 receptor), class symbol

Compared with `COc1cn(Cc2ccc(F)cc2)c(Nc2cccc(Cl)c2C)nc1=O` [Compound I-0001], `COc1cn(Cc2ccc(C)cc2)c(Nc2cccc(Cl)c2C)nc1=O` [Compound I-0045] is higher in IC50: under 10 nM for the first, 500 to 1000 nM for the second. The first is the more potent here.

First: COc1cn(Cc2cc(F)cc(F)c2)c(Nc2cccc(Cl)c2C)nc1=O [Compound I-0002]
Second: COc1cn(Cc2cccc(F)c2)c(Nc2cccc(Cl)c2C)nc1=O [Compound I-0039]
The IC50 of the first is lower: under 10 nM for the first, 10 to 100 nM for the second.

First: COc1cn(Cc2cc(F)cc(F)c2)c(Nc2cc3c(cc2C)COC3)nc1=O [Compound I-0003]
Second: COc1cn(Cc2ccccc2)c(Nc2cc(F)ccc2C)nc1=O [Compound I-0090]
The IC50 of the first is lower: under 10 nM for the first, 100 to 500 nM for the second. The first is the more potent here.

`COc1cccc(Nc2nc(=O)c(OC)cn2Cc2ccccc2)c1C` [Compound I-0007] and `COc1cn(Cc2ccccc2)c(Nc2cccc(C)c2C)nc1=O` [Compound I-0095] fall in the same range of IC50: 10 to 100 nM for the first, 10 to 100 nM for the second.

`Cc1c(Cl)cccc1Nc1nc(=O)ccn1Cc1ccccc1` [Compound I-0009] and `Cc1c(Cl)cccc1Nc1nc(=O)c(F)cn1Cc1ccccc1` [Compound I-0010] cannot be ordered by IC50: under 10 nM for the first, under 10 nM for the second.

`Cc1c(Cl)cccc1Nc1nc(=O)c(Cl)cn1Cc1ccccc1` [Compound I-0011] and `Cc1c(Cl)cccc1Nc1nc(=O)c(C)cn1Cc1ccccc1` [Compound I-0012] fall in the same range of IC50: 10 to 100 nM for the first, 10 to 100 nM for the second.

First: Cc1ccccc1Cn1cc(O)c(=O)nc1Nc1cccc(C(F)(F)F)c1Cl [Compound I-0015]
Second: COc1cn(Cc2ccccc2)c(Nc2cccc(C(F)(F)F)c2Cl)nc1=O [Compound I-0036]
The IC50 of the first is higher: 500 to 1000 nM for the first, 100 to 500 nM for the second. The second is the more potent here.

Compared with `Cc1c(Cl)cccc1Nc1nc(=O)c(OCC(F)(F)F)cn1Cc1ccccc1` [Compound I-0016], `COc1cn(Cc2ccccc2)c(Nc2cccc(Cl)c2C)nc1=O` [Compound I-0037] is lower in IC50: 10 to 100 nM for the first, under 10 nM for the second. The second is the more potent here.

`Cc1c(Cl)cccc1Nc1nc(=O)c(C(=O)O)cn1Cc1ccccc1` [Compound I-0018] and `Cc1c(Cl)cccc1Nc1nc(=O)c(C(=O)N(C)C)cn1Cc1ccccc1` [Compound I-0100] fall in the same range of IC50: 100 to 500 nM for the first, 100 to 500 nM for the second.

`Cc1c(Cl)cccc1Nc1nc(=O)c(NC(=O)OC(C)(C)C)cn1Cc1ccccc1` [Compound I-0021] and `CCNC(=O)c1cn(Cc2ccccc2)c(Nc2cccc(Cl)c2C)nc1=O` [Compound I-0078] fall in the same range of IC50: 100 to 500 nM for the first, 100 to 500 nM for the second.

Compared with `CCOC(=O)Cc1cn(Cc2ccccc2)c(Nc2cccc(Cl)c2C)nc1=O` [Compound I-0023], `Cc1c(Cl)cccc1Nc1nc(=O)c(CC(N)=O)cn1Cc1ccccc1` [Compound I-0026] is lower in IC50: 100 to 500 nM for the first, 10 to 100 nM for the second. The second is the more potent here.

First: Cc1c(Cl)cccc1Nc1nc(=O)c(CCO)cn1Cc1ccccc1 [Compound I-0024]
Second: Cc1c(Cl)cccc1Nc1nc(=O)c(CC(=O)O)cn1Cc1ccccc1 [Compound I-0025]
The IC50 of the first is lower: 10 to 100 nM for the first, 500 to 1000 nM for the second.

`Cc1c(Cl)cccc1Nc1nc(=O)c(Br)cn1Cc1ccccc1` [Compound I-0027] and `COc1cn(Cc2ccccc2)c(Nc2cccc(Cl)c2Cl)nc1=O` [Compound I-0096] fall in the same range of IC50: 10 to 100 nM for the first, 10 to 100 nM for the second.

`Cc1c(Cl)cccc1Nc1nc(=O)c(-c2ccccc2)cn1Cc1ccccc1` [Compound I-0028] and `COc1cn(Cc2ccccc2)c(Nc2ccccc2Cl)nc1=O` [Compound I-0060] fall in the same range of IC50: 500 to 1000 nM for the first, 500 to 1000 nM for the second.

Compared with `COc1cn(Cc2ccccc2)c(NCc2cccc(C(F)(F)F)c2Cl)nc1=O` [Compound I-0035], `COc1cn(Cc2ccccc2)c(NCc2ccccc2C(F)(F)F)nc1=O` [Compound I-0065] is higher in IC50: 100 to 500 nM for the first, 500 to 1000 nM for the second. The first is the more potent here.

`COc1cn(Cc2ccc(F)cc2)c(Nc2cccc(C(F)(F)F)c2Cl)nc1=O` [Compound I-0038] and `COc1cn(Cc2ccccc2)c(Nc2cccc(C(F)(F)F)c2C)nc1=O` [Compound I-0085] fall in the same range of IC50: 10 to 100 nM for the first, 10 to 100 nM for the second.

First: COc1cn(Cc2ccccc2F)c(Nc2cccc(Cl)c2C)nc1=O [Compound I-0040]
Second: COc1cn(Cc2ccccc2C)c(Nc2cccc(Cl)c2C)nc1=O [Compound I-0043]
The IC50 of the first is lower: 10 to 100 nM for the first, 100 to 500 nM for the second. The first is the more potent here.

First: Cc1c(Cl)cccc1Nc1nc(=O)c(F)cn1Cc1ccc(F)cc1 [Compound I-0041]
Second: Cc1c(Cl)cccc1Nc1nc(=O)c(C#N)cn1Cc1ccc(F)cc1 [Compound I-0056]
The IC50 of the first is lower: under 10 nM for the first, 10 to 100 nM for the second. The first is the more potent here.

First: COc1cn(Cc2cccc(C)c2)c(Nc2cccc(Cl)c2C)nc1=O [Compound I-0044]
Second: COc1cn(Cc2cccc(C#N)c2)c(Nc2cccc(Cl)c2C)nc1=O [Compound I-0047]
The IC50 of the first is lower: 10 to 100 nM for the first, 500 to 1000 nM for the second. The first is the more potent here.

Compared with `COc1cn(Cc2ccccc2)c(Nc2cccc3c2CCNC3)nc1=O` [Compound I-0050], `COc1cn(Cc2ccccc2)c(Nc2cccc(F)c2C)nc1=O` [Compound I-0082] is lower in IC50: 500 to 1000 nM for the first, 100 to 500 nM for the second.

`COc1ccccc1Cn1cc(OC)c(=O)nc1Nc1cccc(Cl)c1C` [Compound I-0054] and `COc1cn(CCCc2ccccc2)c(Nc2cccc(Cl)c2C)nc1=O` [Compound I-0099] fall in the same range of IC50: 100 to 500 nM for the first, 100 to 500 nM for the second.

First: COc1cn(Cc2ccccc2)c(Nc2ccccc2C)nc1=O [Compound I-0061]
Second: CCc1ccccc1Nc1nc(=O)c(OC)cn1Cc1ccccc1 [Compound I-0084]
The IC50 of the first is higher: 500 to 1000 nM for the first, 10 to 100 nM for the second. The second is the more potent here.

Compared with `COc1cn(Cc2ccccc2)c(NCc2ccccc2Oc2ccc(C)cc2)nc1=O` [Compound I-0066], `COc1cn(Cc2ccccc2)c(NCc2ccccc2C)nc1=O` [Compound I-0102] is lower in IC50: 500 to 1000 nM for the first, 100 to 500 nM for the second.

`COc1cn(Cc2ccccc2)c(NCc2ccccc2N(C)C)nc1=O` [Compound I-0067] and `COc1cn(Cc2ccccc2)c(Nc2ccccc2C(F)(F)F)nc1=O` [Compound I-0089] fall in the same range of IC50: 500 to 1000 nM for the first, 500 to 1000 nM for the second.

First: COc1cn(Cc2ccccc2)c(Nc2cc(C)ccc2C)nc1=O [Compound I-0068]
Second: COc1cn(Cc2ccccc2)c(Nc2cc(Cl)ccc2C)nc1=O [Compound I-0092]
The IC50 of the first is lower: 10 to 100 nM for the first, 100 to 500 nM for the second.

`COc1cn(Cc2ccccc2)c(Nc2cc(N3CCCS3(=O)=O)ccc2C)nc1=O` [Compound I-0070] and `COc1ccc(C)c(Nc2nc(=O)c(OC)cn2Cc2ccccc2)c1` [Compound I-0074] fall in the same range of IC50: 10 to 100 nM for the first, 10 to 100 nM for the second.

`COc1cn(Cc2ccccc2)c(Nc2ccc(Cl)cc2Cl)nc1=O` [Compound I-0071] and `COc1cn(Cc2ccccc2)c(Nc2cc(Cl)ccc2Cl)nc1=O` [Compound I-0080] fall in the same range of IC50: 100 to 500 nM for the first, 100 to 500 nM for the second.

`COc1cn(Cc2ccccc2)c(Nc2ccc(Cl)cc2C)nc1=O` [Compound I-0072] and `CCc1cc(Br)ccc1Nc1nc(=O)c(OC)cn1Cc1ccccc1` [Compound I-0101] fall in the same range of IC50: 10 to 100 nM for the first, 10 to 100 nM for the second.

`COc1cn(Cc2ccccc2)c(NC2CCc3ccccc32)nc1=O` (stereo not drawn) [Compound I-0073] and `COc1cn(Cc2ccccc2)c(Nc2c(Cl)cccc2Cl)nc1=O` [Compound I-0083] fall in the same range of IC50: 500 to 1000 nM for the first, 500 to 1000 nM for the second.

`Cc1c(Cl)cccc1Nc1nc(=O)c(C(=O)NCC#N)cn1Cc1ccccc1` [Compound I-0075] and `COCCNC(=O)c1cn(Cc2ccccc2)c(Nc2cccc(Cl)c2C)nc1=O` [Compound I-0076] fall in the same range of IC50: 100 to 500 nM for the first, 100 to 500 nM for the second.

Compared with `Cc1c(Cl)cccc1Nc1nc(=O)c(C(=O)NCCS(C)(=O)=O)cn1Cc1ccccc1` [Compound I-0077], `Cc1c(Cl)cccc1Nc1nc(=O)c(C(=O)NCC(F)(F)F)cn1Cc1ccccc1` [Compound I-0098] is higher in IC50: 10 to 100 nM for the first, 500 to 1000 nM for the second. The first is the more potent here.

First: COC(=O)c1cccc(Nc2nc(=O)c(OC)cn2Cc2ccccc2)c1C [Compound I-0088]
Second: COc1cn(Cc2ccccc2)c(Nc2cccc(OC(F)F)c2C)nc1=O [Compound I-0093]
The IC50 of the first is higher: 100 to 500 nM for the first, 10 to 100 nM for the second.

`COc1cn(Cc2ccccc2)c(Nc2cccc(-n3cccc3)c2C)nc1=O` [Compound I-0091] and `COc1cn(Cc2ccccc2)c(Nc2cc(C(F)(F)F)ccc2C)nc1=O` [Compound I-0097] fall in the same range of IC50: 100 to 500 nM for the first, 100 to 500 nM for the second.
